Experimental data published in PMC3476531, “Synergy of Peptide and Sugar in O-GlcNAcase Substrate Recognition” (Chemistry & Biology, 2012).
Numbering of substitutions follows the chain as printed.

Tests used:
Assay type in all cases: biochemical
hOGA Y69K = target: T1, hOGA Y69K (Homo sapiens, UniProt O60502, Y69K); assay: hOGA Y69K mutant glycopeptide hydrolysis, substrate competition assay; conditions: hOGA point mutant Y69K; competition with 4MU-GlcNAc; 37°C, pH 7.4; triplicate; read-out: Michaelis constant (KM) for hOGA Y69K
T1 construct: GST (N); made in house; host or cells: transiently transfected HEK293 cells
T1 sequence (O60502 1-916 Y69K): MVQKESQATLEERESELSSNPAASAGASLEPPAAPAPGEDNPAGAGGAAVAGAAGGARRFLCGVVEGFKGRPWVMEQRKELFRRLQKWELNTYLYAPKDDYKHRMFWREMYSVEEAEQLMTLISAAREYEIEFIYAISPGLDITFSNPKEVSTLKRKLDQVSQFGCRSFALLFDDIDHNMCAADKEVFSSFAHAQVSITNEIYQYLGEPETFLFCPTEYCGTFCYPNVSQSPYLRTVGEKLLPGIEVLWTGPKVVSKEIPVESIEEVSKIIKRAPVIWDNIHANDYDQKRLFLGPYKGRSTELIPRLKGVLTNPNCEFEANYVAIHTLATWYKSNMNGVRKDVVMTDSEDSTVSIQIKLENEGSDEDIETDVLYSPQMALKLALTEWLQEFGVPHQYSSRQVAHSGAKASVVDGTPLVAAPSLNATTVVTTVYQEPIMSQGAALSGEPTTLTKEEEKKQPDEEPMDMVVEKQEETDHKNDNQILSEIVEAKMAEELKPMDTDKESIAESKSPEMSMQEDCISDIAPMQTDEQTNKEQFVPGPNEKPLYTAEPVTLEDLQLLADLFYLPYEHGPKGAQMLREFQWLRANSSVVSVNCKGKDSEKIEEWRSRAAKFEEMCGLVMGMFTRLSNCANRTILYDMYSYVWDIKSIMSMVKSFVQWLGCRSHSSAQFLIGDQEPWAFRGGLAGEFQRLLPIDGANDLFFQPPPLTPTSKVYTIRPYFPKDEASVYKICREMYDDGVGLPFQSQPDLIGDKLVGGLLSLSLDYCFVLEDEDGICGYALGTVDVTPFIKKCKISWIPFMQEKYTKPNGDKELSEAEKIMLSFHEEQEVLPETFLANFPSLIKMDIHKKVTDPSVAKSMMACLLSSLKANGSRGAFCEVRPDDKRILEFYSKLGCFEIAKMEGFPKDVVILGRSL

hOGA Y69Q = target: T2, hOGA Y69Q (Homo sapiens, UniProt O60502, Y69Q); assay: hOGA Y69Q mutant glycopeptide hydrolysis, substrate competition assay; conditions: hOGA point mutant Y69Q; competition with 4MU-GlcNAc; 37°C, pH 7.4; triplicate; read-out: Michaelis constant (KM) for hOGA Y69Q
T2 construct: GST (N); made in house; host or cells: transiently transfected HEK293 cells
T2 sequence (O60502 1-916 Y69Q): T1 sequence (O60502 1-916 Y69K) with K69Q

hOGA Y69F = target: T3, hOGA Y69F (Homo sapiens, UniProt O60502, Y69F); assay: hOGA Y69F mutant glycopeptide hydrolysis, substrate competition assay; conditions: hOGA point mutant Y69F; competition with 4MU-GlcNAc; 37°C, pH 7.4; triplicate; read-out: Michaelis constant (KM) for hOGA Y69F
T3 construct: GST (N); made in house; host or cells: transiently transfected HEK293 cells
T3 sequence (O60502 1-916 Y69F): T1 sequence (O60502 1-916 Y69K) with K69F

Substance | Km (hOGA Y69K) [µM] | Km (hOGA Y69Q) [µM] | Km (hOGA Y69F) [µM]
VAHS(O-GlcNAc)GAK [hOGA (Ser405) 7, 7-residue O-GlcNAc glycopeptide derived from hOGA Ser405 site] | > 4000 | > 4000 | 1200
PVSVPYS(O-GlcNAc)SAQSTS [TAB1 (Ser395) 13, 13-residue O-GlcNAc glycopeptide derived from TAB1 Ser395 site] | > 4000 | 3600 | 1100
p53 (Ser149) 11: 11-residue O-GlcNAc glycopeptide derived from p53 Ser149 site | 350 ± 20 | 170 ± 40 | 53 ± 5
